Data reported in ChEMBL document CHEMBL1201862, “PubChem BioAssay data set” (2004).
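How tested: cells in 96-well plates exposed to compound for 48 hours at five concentrations. GI50: concentration for 50% inhibition of growth.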 The source made the active and inactive calls. Rule as the data show it: active = GI50 up to about 1.1 µM and inactive = higher.

How the values were obtained:
Test in all cases: DTP human tumour cell line panel, 48 h
HCT-15 = test system: HCT-15
HOP-62 = test system: HOP-62
KM12 = test system: KM12
M14 = test system: M14
MDA-MB-435 = test system: MDA-MB-435
NCI-H226 = test system: NCI-H226
NCI-H460 = test system: NCI-H460
NCI/ADR-RES = test system: NCI/ADR-RES
OVCAR-8 = test system: OVCAR-8
RPMI-8226 = test system: RPMI-8226
SF-268 = test system: SF-268
SK-MEL-5 = test system: SK-MEL-5
SNB-75 = test system: SNB-75
SR = test system: SR
T47D = test system: T47D
UO-31 = test system: UO-31
A498 = test system: A498
HL-60 = test system: HL-60
RXF 393 = test system: RXF 393

Row | SMILES | GI50 (HCT-15) [µM] | GI50 (HOP-62) | GI50 (KM12) | GI50 (M14) | GI50 (MDA-MB-435) | GI50 (NCI-H226) | GI50 (NCI-H460) | GI50 (NCI/ADR-RES) | GI50 (OVCAR-8) | GI50 (RPMI-8226) | GI50 (SF-268) | GI50 (SK-MEL-5) | GI50 (SNB-75) | GI50 (SR) | GI50 (T47D) | GI50 (UO-31) | GI50 (A498) | GI50 (HL-60) | GI50 (RXF 393)
1 | CN1CC(c2ccccc2)=CC2=C1C=CC(=N)/C2=N\N | > 100 | 71.8 µM (inactive) | > 100 µM (inactive) | > 100 µM (inactive) | > 100 µM (inactive) | 6.65 µM (inactive) | > 100 µM (inactive) | 47.1 µM (inactive) | > 100 µM (inactive) | > 100 µM (inactive) | > 100 µM (inactive) | > 100 µM (inactive) | 20.9 µM (inactive) | > 100 µM (inactive) | > 100 µM (inactive) | > 100 µM (inactive) |  |  | 
2 | O=C(O)CCCOc1cc(-c2ccccc2F)nc2cc3c(cc12)OCO3 | 27.9 | 4.01 µM (inactive) | 4.19 µM (inactive) | 3.73 µM (inactive) | 3.18 µM (inactive) |  |  | 4.65 µM (inactive) | 5.66 µM (inactive) | 3.73 µM (inactive) |  |  | 6.56 µM (inactive) | 3.93 µM (inactive) | > 100 µM (inactive) |  |  |  | 
3 | OC(c1cc(-c2ccc(Cl)cc2)nc2ccccc12)C1CCCCN1 (stereo not drawn) | 2.46 | 1.61 µM (inactive) | 2.26 µM (inactive) | 1.77 µM (inactive) | 2.09 µM (inactive) | 4.21 µM (inactive) | 2.08 µM (inactive) | 2.38 µM (inactive) | 2.08 µM (inactive) | 1.37 µM (inactive) | 2.02 µM (inactive) | 2.24 µM (inactive) | 2.43 µM (inactive) |  | 1.77 µM (inactive) | 1.15 µM (inactive) | 1.82 µM (inactive) | 2.39 µM (inactive) | 0.368 µM (active)
4 | Cc1cc(C(C)(C)C)cc(CNC2CCCCC2)c1O | 16.6 | 20.9 µM (inactive) | 19.9 µM (inactive) | 15.7 µM (inactive) | 19.5 µM (inactive) |  | 14.8 µM (inactive) | 16.4 µM (inactive) | 17.3 µM (inactive) | 17.5 µM (inactive) | 16.1 µM (inactive) | 17 µM (inactive) | 12.2 µM (inactive) | 21.8 µM (inactive) | 14.8 µM (inactive) | 14.9 µM (inactive) | 16.6 µM (inactive) |  | < 0.01 µM (active)
5 | c1cc(CCN2CCCCC2)ccn1 | > 100 | > 100 µM (inactive) | > 100 µM (inactive) | > 100 µM (inactive) | > 100 µM (inactive) | > 100 µM (inactive) | > 100 µM (inactive) | > 100 µM (inactive) | > 100 µM (inactive) | > 100 µM (inactive) | > 100 µM (inactive) | > 100 µM (inactive) | > 100 µM (inactive) | 33.3 µM (inactive) | > 100 µM (inactive) | > 100 µM (inactive) | > 100 µM (inactive) |  | > 100 µM (inactive)
6 | CCOc1nc2c(N3CCCC3)nc(N3CCNCC3)nc2nc1NCc1ccccc1 | 1.63 | 1.05 µM (active) | 1.34 µM (inactive) | 1.61 µM (inactive) | 1.34 µM (inactive) | 1.65 µM (inactive) | 1.41 µM (inactive) | 2.77 µM (inactive) | 1.73 µM (inactive) | 1.39 µM (inactive) | 1.56 µM (inactive) | 1.41 µM (inactive) | 0.975 µM (active) | 1.31 µM (inactive) | 1.46 µM (inactive) | 1.32 µM (inactive) |  | 1.4 µM (inactive) | 1.03 µM (active)
7 | CN(/N=C/c1cccs1)c1ccc(Cl)cc1[N+](=O)[O-] | 10.6 | 40.9 µM (inactive) | 11.4 µM (inactive) | 34.2 µM (inactive) | 5.57 µM (inactive) | 19.8 µM (inactive) | 23.3 µM (inactive) | 18.9 µM (inactive) | 40.5 µM (inactive) | 22 µM (inactive) | 83.4 µM (inactive) | 36.9 µM (inactive) | 30.8 µM (inactive) | 5.71 µM (inactive) | 41.6 µM (inactive) | 36.9 µM (inactive) |  | 6.75 µM (inactive) | 23.6 µM (inactive)
8 | Cc1ccc2c(=O)c(-c3nnsn3)c[nH]c2n1 | > 100 | > 100 µM (inactive) | > 100 µM (inactive) | > 100 µM (inactive) | > 100 µM (inactive) | > 100 µM (inactive) | > 100 µM (inactive) | > 100 µM (inactive) | > 100 µM (inactive) | > 100 µM (inactive) | > 100 µM (inactive) | > 100 µM (inactive) |  |  | > 100 µM (inactive) | > 100 µM (inactive) | > 100 µM (inactive) | > 100 µM (inactive) | > 100 µM (inactive)
9 | Cc1n[n+](CC(=O)c2ccccc2)c2sc(N)nn12 | > 100 | > 100 µM (inactive) | > 100 µM (inactive) | > 100 µM (inactive) | > 100 µM (inactive) | > 100 µM (inactive) | > 100 µM (inactive) | > 100 µM (inactive) | > 100 µM (inactive) | > 100 µM (inactive) | > 100 µM (inactive) | 72.3 µM (inactive) | > 100 µM (inactive) |  | > 100 µM (inactive) | > 100 µM (inactive) | > 100 µM (inactive) |  | > 100 µM (inactive)
10 | CCSC1=N/C(=C\c2ccccc2O)C(Nc2ccc(C)cc2)=N1 | 59.7 | 78.2 µM (inactive) | 24.5 µM (inactive) | 48.8 µM (inactive) | 34.4 µM (inactive) | 50.5 µM (inactive) | 38.5 µM (inactive) | 56 µM (inactive) | 80.4 µM (inactive) | > 100 µM (inactive) | 71.8 µM (inactive) | 30.2 µM (inactive) | 46.1 µM (inactive) |  | 50 µM (inactive) | > 100 µM (inactive) | > 100 µM (inactive) | 39 µM (inactive) | 75.2 µM (inactive)
11 | Cc1nc(-c2ccccc2)c(-c2ccccc2)s1 | 17.7 | 38 µM (inactive) | 20.4 µM (inactive) | 19.9 µM (inactive) | 17.9 µM (inactive) | 17.9 µM (inactive) | 19.1 µM (inactive) | 24.2 µM (inactive) | 27.1 µM (inactive) | 14.3 µM (inactive) | 25.6 µM (inactive) | 14.4 µM (inactive) | 23.4 µM (inactive) |  | 37.8 µM (inactive) | 20.2 µM (inactive) | 17.6 µM (inactive) | 10 µM (inactive) | 19.4 µM (inactive)
12 | COc1ccc(OCC(=N/NC(=O)c2ccncc2)/N=C/c2ccncc2)cc1 | 51.5 | 71.8 µM (inactive) | 60 µM (inactive) | 82 µM (inactive) | 22.6 µM (inactive) | 67.5 µM (inactive) | > 100 µM (inactive) | 77.6 µM (inactive) | > 100 µM (inactive) | 40.7 µM (inactive) | > 100 µM (inactive) |  |  |  | > 100 µM (inactive) |  | 59.3 µM (inactive) | 57.9 µM (inactive) | 36.3 µM (inactive)
13 | O=c1onc2n1-c1ccc(Cl)cc1C(=S)N1CSCC21 (stereo not drawn) | 26.6 | 63.1 µM (inactive) | 29.4 µM (inactive) | 11.1 µM (inactive) | 9.46 µM (inactive) | 28.1 µM (inactive) | 20.9 µM (inactive) | 17.3 µM (inactive) | 18.1 µM (inactive) | 31.3 µM (inactive) | 25.8 µM (inactive) | 19.7 µM (inactive) | 30.4 µM (inactive) | 15.9 µM (inactive) | 35.7 µM (inactive) | 59 µM (inactive) | 23.1 µM (inactive) |  | 33.6 µM (inactive)
14 | Cc1c[n+]([O-])c2ccccc2[n+]1[O-] | > 100 | > 100 µM (inactive) | > 100 µM (inactive) | > 100 µM (inactive) | > 100 µM (inactive) |  | > 100 µM (inactive) | > 100 µM (inactive) | > 100 µM (inactive) | > 100 µM (inactive) | > 100 µM (inactive) | > 100 µM (inactive) | > 100 µM (inactive) | > 100 µM (inactive) | > 100 µM (inactive) | > 100 µM (inactive) | > 100 µM (inactive) |  | > 100 µM (inactive)
15 | CCCC1C(C#N)(C#N)C(C#N)=C(N)C1(C)C(C)=O (stereo not drawn) | 29.2 |  | > 100 µM (inactive) | > 100 µM (inactive) | > 100 µM (inactive) | 43.7 µM (inactive) |  | > 100 µM (inactive) | > 100 µM (inactive) | > 100 µM (inactive) | > 100 µM (inactive) | 65.2 µM (inactive) | 4.42 µM (inactive) |  | 59 µM (inactive) | > 100 µM (inactive) | > 100 µM (inactive) | 31.8 µM (inactive) | 71 µM (inactive)
16 | CCN(CC)CCSc1c(C(C)=O)c(=O)n(-c2ccccc2)c(=S)n1-c1ccccc1 | 2.8 | 18.9 µM (inactive) | 17.2 µM (inactive) | 2.05 µM (inactive) | 6.17 µM (inactive) | > 40.3 µM (inactive) | 21.1 µM (inactive) | 22.2 µM (inactive) | 3.46 µM (inactive) | 2.13 µM (inactive) | 15.8 µM (inactive) | 13.8 µM (inactive) | 33.3 µM (inactive) |  | 2.58 µM (inactive) | 1.96 µM (inactive) | 19.1 µM (inactive) | 2.52 µM (inactive) | 1.9 µM (inactive)
17 | O=[N+]([O-])C(=C(Nc1ccccc1)Nc1ccccc1)/C(Cl)=C(\Cl)[N+](=O)[O-] | 2.7 | 10.3 µM (inactive) | 3.98 µM (inactive) | 4.75 µM (inactive) | 3.26 µM (inactive) | 12.7 µM (inactive) | 14.7 µM (inactive) | 3.81 µM (inactive) | 1.44 µM (inactive) | 3.15 µM (inactive) | 2.98 µM (inactive) | 2.02 µM (inactive) | 7.57 µM (inactive) | 1.11 µM (active) | 2.02 µM (inactive) | 3.07 µM (inactive) | 19.7 µM (inactive) |  | 1.89 µM (inactive)
